≈ marks a conversion by molar mass, not a printed value.
What was measured:
[1] = Solubilization of additional guests by two different hosts; type: physicochemical; settings: for solubility at 1 week: water containing solubilising hosts, aqueous with cosolvent or surfactant or cyclodextrin, thermodynamic from solid
Description: Techniques were as described in Example 1 and water was used as a solvent. As shown in Table for Example 4, complexes of two hosts increased the solubility of retinoic acid and taxol compared to the solubility obtained with individual hosts.

[2] = Solubilization of choline and sodium salts of FTS and other acidic drugs by cyclodextrins
Description: The solid obtained thereby was heated on a boiling water bath.
In this procedure, FTS (10 mg, 28 micromoles) was dissolved with warming in ethanol (20 microliters) and an aqueous solution of sodium hydroxide (30 microliters of 1 M NaOH carbonate free, i.e., 30 micromoles) was added. […] This clear solution then was added to the solution of Pitha methyl derivative (100 mg) in isotonic phosphate buffered saline (1 ml, pH 7.4).
In these investigations, choline salts were prepared by extraction with organic solvents of mixtures of sodium salts of the anion in question and choline chloride. There mixtures were either solid or in aqueous solutions.

[3] = Solubilization of FTS by two different hosts in water (equilibration for a week, filtration, UV spectrophotometry); type: physicochemical; settings: for solubility at 1 week: aqueous host solution, aqueous with cosolvent or surfactant or cyclodextrin, thermodynamic from solid
Description: (§1) no enhancement with two hosts. Water was used as the solvent for all data in the Table for Example 1. When a sodium carbonate based buffer of pH 10 was used as a solvent (conditions in which FTS is converted to its salt), the solubility of FTS in TRIMEA combined with DIMEB or in TRIMEA combined with Pitha methyl derivatives exceeds 60 mg per ml. Cooperativity, in this case, could not be calculated since, in these conditions, even solubilization by one component alone (DIMEB or Pitha methyl derivative) was over 60 mg per ml.

[4] = Solubilization of FTS by hosts in sodium carbonate based buffer of pH 10; type: physicochemical
Description: as §1

[5] = Solubilization of FTS by TRIMEA and DIMEB: continuous variation and concentration dependence; type: physicochemical; settings: water
Description: The optimum ratio of hosts was established by the continuous variation method, using techniques of Example 1 and water as a solvent. The results in Table A for Example 3 indicate that the optimum solubility is obtained when both hosts are in about equal concentrations. […]

[6] = physchem
Description: A slight excess of FTS was equilibrated with water containing one host at 5% concentration or two hosts, each at 5% concentration, by rotation for a week. The suspension was then filtered through a millipore filter and the concentration of FTS in filtrate determined by ultraviolet spectrophotometry. […] The cooperativity index reflects the improvement in solubility obtained with each combination of two hosts over the solubility obtained with each of the individual hosts involved in the two-host system. It is computed by dividing the obtained solubility with two hosts by the sum of the individual solubilities obtained with each component.

[7] = Solubilization of FTS by TRIMEA and DIMEB: continuous variation and concentration dependence; type: physicochemical
[8] = host combination DIMEB - TRIMEB (first line, r7), water
[9] = host combination DIMEB - TRIMEB (printed a second time, r8), water
[10] = host combination TRIMEA - DIMEB, water
[11] = hosts Alpha Cyclodextrin - DIMEB, each 5% in water
[12] = hosts Alpha Cyclodextrin - TRIMEB, each 5% in water
[13] = hosts Beta Cyclodextrin - TRIMEB, each 5% in water
[14] = hosts DIMEB - PERM HPBCD, each 5% in water
[15] = hosts DIMEB - TRIMEB, each 5% in water
[16] = hosts DIMEB - TRIMEG, each 5% in water
[17] = hosts G2 - DIMEB, each 5% in water
[18] = hosts G2 - TRIMEB, each 5% in water
[19] = hosts G2 - TRIMEG, each 5% in water
[20] = hosts HPACD - HPBCD, each 5% in water
[21] = hosts Pitha Methyl 258 - TRIMEB, each 5% in water
[22] = hosts Pitha Methyl 322 - DIMEB, each 5% in water
[23] = hosts TRIMEA - DIMEB, each 5% in water
[24] = hosts TRIMEA - G2, each 5% in water
[25] = hosts TRIMEA - Pitha Methyl 258, each 5% in water
[26] = host combination TRIMEA - Pitha Methyl 258, water
[27] = host combination TRIMEA - RAMEB, water
[28] = host combination TRIMEA - TRIMEB, water

## C[C@@H]1[C@H](O)[C@@H](C)/C=C/C=C/C=C/C=C/C=C/C=C/C=C/[C@H](O[C@@H]2O[C@H](C)[C@@H](O)[C@H](N)[C@@H]2O)C[C@@H]2O[C@](O)(C[C@@H](O)C[C@@H](O)[C@H](O)CC[C@@H](O)C[C@@H](O)CC(=O)O[C@H]1C)C[C@H](O)[C@H]2C(=O)O [Amphotericin B]
[1]; [8]
  Cooperativity: 0.7
  Solubility: 131 µg/mL
[1]; [9]
  Cooperativity: 0.9
  Solubility: 158 µg/mL
[1]; [10]
  Cooperativity: 0.9
  Solubility: 185 µg/mL
[2]
  solubilization of choline salts: easily solubilized

## CC(C)=CCCC(C)=CCCC(C)=CCSc1ccccc1C(=O)O [FTS, S-farnesylthiosalicylic acid]
[3]; [11]
  solubility at 1 week: 1400 µg/mL (≈ 3.9 mM)
  Cooperativity (observed ÷ Σ components): 1.0
[3]; [12]
  solubility at 1 week: 100 µg/mL (≈ 0.279 mM)
  Cooperativity (observed ÷ Σ components): 0.6
[3]; [13]
  solubility at 1 week: 26 µg/mL (≈ 0.0725 mM)
  Cooperativity (observed ÷ Σ components): 0.2
[3]; [14]
  solubility at 1 week: 1100 µg/mL (≈ 3.07 mM)
  Cooperativity (observed ÷ Σ components): 0.8
[3]; [15]
  solubility at 1 week: 2600 µg/mL (≈ 7.25 mM)
  Cooperativity (observed ÷ Σ components): 1.8
[3]; [16]
  solubility at 1 week: 1400 µg/mL (≈ 3.9 mM)
  Cooperativity (observed ÷ Σ components): 1.0
[3]; [17]
  solubility at 1 week: 2400 µg/mL (≈ 6.69 mM)
  Cooperativity (observed ÷ Σ components): 1.0
[3]; [18]
  solubility at 1 week: 1100 µg/mL (≈ 3.07 mM)
  Cooperativity (observed ÷ Σ components): 1.0
[3]; [19]
  solubility at 1 week: 1000 µg/mL (≈ 2.79 mM)
  Cooperativity (observed ÷ Σ components): 1.0
[3]; [20]
  solubility at 1 week: 52 µg/mL (≈ 0.145 mM)
  Cooperativity (observed ÷ Σ components): 0.3
[3]; [21]
  solubility at 1 week: 950 µg/mL (≈ 2.65 mM)
  Cooperativity (observed ÷ Σ components): 1.4
[3]; [22]
  solubility at 1 week: 1300 µg/mL (≈ 3.63 mM)
  Cooperativity (observed ÷ Σ components): 0.7
[3]; [23]
  solubility at 1 week: 6600 µg/mL (≈ 18.4 mM)
  Cooperativity (observed ÷ Σ components): 4.1
[3]; [24]
  solubility at 1 week: 3900 µg/mL (≈ 10.9 mM)
  Cooperativity (observed ÷ Σ components): 3.0
[3]; [25]
  solubility at 1 week: 5700 µg/mL (≈ 15.9 mM)
  Cooperativity (observed ÷ Σ components): 9.4
[4]; TRIMEA combined with DIMEB, sodium carbonate based buffer of pH 10 (FTS converted to its salt)
  solubility of FTS: exceeds 60 mg per ml
[4]; TRIMEA combined with Pitha methyl derivatives, sodium carbonate based buffer of pH 10
  solubility of FTS: exceeds 60 mg per ml
[5]; TRIMEA 0 % w/w, DIMEB 5 % w/w
  FTS: 1.55 mg/mL
[5]; TRIMEA 1 % w/w, DIMEB 4 % w/w
  FTS: 2.29 mg/mL
[5]; TRIMEA 2 % w/w, DIMEB 3 % w/w
  FTS: 2.66 mg/mL
[5]; TRIMEA 3 % w/w, DIMEB 2 % w/w
  FTS: 2.79 mg/mL
[5]; TRIMEA 4 % w/w, DIMEB 1 % w/w
  FTS: 2.33 mg/mL
[5]; TRIMEA 5 % w/w, DIMEB 0 % w/w
  FTS: 0.19 mg/mL
[6]; 1 week
  single, highly methylated cyclodextrin host outperformed the current standard: over 2 times
[2]
  solubilization of choline salts: easily solubilized
[7]; TRIMEA 2 % w/w, DIMEB 2 % w/w
  FTS: 2.13 mg/mL
[7]; TRIMEA 5 % w/w, DIMEB 5 % w/w
  FTS: 8.53 mg/mL
[7]; TRIMEA 10 % w/w, DIMEB 10 % w/w
  FTS: 15.86 mg/mL
[7]; TRIMEA 15 % w/w, DIMEB 15 % w/w
  FTS (mg/ml): (>than 17.17, all dissolved) mg/ml

## CC1=C(/C=C/C(C)=C/C=C/C(C)=C/C(=O)O)C(C)(C)CCC1 [Retinoic Acid]
[1]; [10]
  Cooperativity: 1.45
  solubility at 1 week: 71 µg/mL
[1]; [26]
  Cooperativity: 1.13
  solubility at 1 week: 52 µg/mL
[1]; [27]
  Cooperativity: 1.08
  solubility at 1 week: 56 µg/mL
[1]; [28]
  Cooperativity: 0.7
  solubility at 1 week: 12 µg/mL
[6]; 1 week
  single, highly methylated cyclodextrin host outperformed the current standard: 2.5 times

## CC(=O)O[C@H]1C(=O)[C@@]2(C)[C@H]([C@H](OC(=O)c3ccccc3)[C@]3(O)C[C@H](OC(=O)[C@H](O)[C@@H](NC(=O)c4ccccc4)c4ccccc4)C(C)=C1C3(C)C)[C@]1(OC(C)=O)CO[C@@H]1C[C@@H]2O [Taxol]
[1]; [10]
  Cooperativity: 1.49
  solubility at 1 week: 1000 µg/mL
[6]; 1 week
  Solubility: 380 µg/mL
[6]; aqueous with cosolvent or surfactant or cyclodextrin, thermodynamic from solid, Solubility
  solubility at 1 week: 290 µg/mL

## CC(C)=CCC/C(C)=C/CC/C(C)=C/CSc1ccccc1C(=O)[O-].C[N+](C)(C)CCO [choline salt of FTS]
[2]; cyclodextrin-solubilized salts
  precipitate formation upon acidification: less prone to form precipitate upon acidification than sodium salts
[2]; powder of choline salt of FTS with methylated beta-cyclodextrin dissolved in water, paper strip indicator
  pH of solution: 6.5
[2]; solid powder of choline salt of FTS with methylated beta-cyclodextrin
  dissolution of the powder in water: dissolved easily and fully in water

## CC(C)Cc1ccc(C(C)C(=O)O)cc1 (stereo not shown) [ibuprofen]
[2]
  solubilization of choline salts: easily solubilized

## COc1ccc2c(c1)c(CC(=O)O)c(C)n2C(=O)c1ccc(Cl)cc1 [indomethacin]
[2]
  solubilization of choline salts: easily solubilized

## CN1C(C(=O)Nc2ccccn2)=C(O)c2ccccc2S1(=O)=O [piroxicam]
[2]
  solubilization of choline salts: easily solubilized

## O=C(O)c1ccccc1O [salicylic acid]
[2]
  solubilization of choline salts: easily solubilized

## Nc1ccc(S(=O)(=O)Nc2ncccn2)cc1 [sulfadiazine]
[2]
  solubilization of choline salts: easily solubilized

## Cc1ccc(C(=O)Nc2ccc(S(=O)(=O)O)c3cc(S(=O)(=O)O)cc(S(=O)(=O)O)c23)cc1NC(=O)c1cccc(NC(=O)Nc2cccc(C(=O)Nc3cc(C(=O)Nc4ccc(S(=O)(=O)O)c5cc(S(=O)(=O)O)cc(S(=O)(=O)O)c45)ccc3C)c2)c1 [suramin]
[2]
  solubilization of choline salts: easily solubilized

Reference: patent US6576261B1, “Potentiation of inclusion complex formation of cyclodextrin derivatives” (priority 1999, dated 2003)
